In patent US20260242419A1, “A CYCLIC PEPTIDE FOR TRAPPING INTERLEUKIN-1 BETA” (Merck Sharp & Dohme LLC, priority 2023, published 2026):
pIC50: −log10 of the molar value. Starred links: 1 amine or outer side, 2 acyl side, 3 side chain; linkers in the order of their positions; H or OH if unused. Non-standard residues stand in square brackets, D forms with d. Residues, ends and D or L forms follow the SMILES beside them. Phe(4-(cis-4-COOH-cHex)) = N[C@@H](Cc1ccc([C@H]2CC[C@@H](C(=O)O)CC2)cc1)C(=O)O; dPro(4R-(4-pyridylmethyl)) = O=C(O)[C@H]1C[C@@H](Cc2ccncc2)CN1; Trp(βS-Me,4-F) = C[C@@H](c1c[nH]c2cccc(F)c12)[C@H](N)C(=O)O; Bip(4'-CONH2) = NC(=O)c1ccc(-c2ccc(C[C@H](N)C(=O)O)cc2)cc1; Bip(4'-COOH) = N[C@@H](Cc1ccc(-c2ccc(C(=O)O)cc2)cc1)C(=O)O; Ala(1-bicyclo(1.1.1)pentyl) = N[C@@H](CC12CC(C1)C2)C(=O)O; dPro(4R-Bzl(4-F)) = O=C(O)[C@H]1C[C@@H](Cc2ccc(F)cc2)CN1; X3 = CC(=O)NCCOc1ccc(C[C@H](N[*:1])C(=O)[*:2])cn1; Ala(pyrimidin-5-yl) = N[C@@H](Cc1cncnc1)C(=O)O; Phe(4-COOH) = N[C@@H](Cc1ccc(C(=O)O)cc1)C(=O)O; Pro(cis-4-F) = O=C(O)[C@@H]1C[C@H](F)CN1; Ala(4-THP) = N[C@@H](CC1CCOCC1)C(=O)O; X38 = O=C([C@H](Cc1ncco1)N[*:1])[*:2]; AEF = NCCOc1ccc(C[C@H](N)C(=O)O)cc1; d(αMeD) = C[C@@](N)(CC(=O)O)C(=O)O; 4Pal = N[C@@H](Cc1ccncc1)C(=O)O; Cit = NC(=O)NCCC[C@H](N)C(=O)O; d(αMeS) = C[C@@](N)(CO)C(=O)O; αMeS = C[C@](N)(CO)C(=O)O; Dab = NCC[C@H](N)C(=O)O; Aib = CC(C)(N)C(=O)O

Target: T1, IL-1β (Homo sapiens, UniProt P01584)
T1 construct: purchased BioLegend 579404
Test: IL-6 assay in MRC5 cells: inhibition of IL-1β induced IL-6 secretion (AlphaLISA)
Format: cell-based
Conditions: inhibition of IL-1β induced IL-6 secretion in MRC5 cells; read-out: MRC5 IC50
How it was run: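 Compound was pre-incubated 1 h at ambient temperature with recombinant human IL-1β at 2λ EC80 before adding human lung fibroblast MRC5 cells (3000/well) in EMEM with 0.025% BSA. After overnight culture at 37 °C, 5% CO2, secreted IL-6 in conditioned medium was measured by AlphaLISA; IC50 from 4-parameter logistic fits.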

T1 sequence (P01584 117-269): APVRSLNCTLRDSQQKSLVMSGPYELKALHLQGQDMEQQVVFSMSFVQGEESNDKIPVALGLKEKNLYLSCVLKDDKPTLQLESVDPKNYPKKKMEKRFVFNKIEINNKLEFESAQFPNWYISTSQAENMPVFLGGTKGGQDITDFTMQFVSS

SMILES	pIC50
C[C@@H](c1c[nH]c2cccc(F)c12)[C@@H]1NC(=O)[C@@H]2C[C@H](F)CN2C(=O)CNC(=O)[C@H](Cc2ccc(C(=O)O)cc2)NC(=O)[C@H](Cc2ccncc2)NC(=O)[C@H](Cc2ccc(-c3ccc(C(=O)O)cc3)cc2)NC(=O)[C@H]2C[C@@H](Cc3ccc(F)cc3)CN2C(=O)CNC(=O)[C@H](CCN)NC(=O)[C@H](CCC(N)=O)NC(=O)[C@H](CCCNC(N)=O)NC(=O)C(C)(C)NC(=O)[C@H](Cc2c[nH]c3ccccc23)NC(=O)[C@H](CCC(=O)O)NC(=O)C(C)(C)NC1=O [Example 52] (cyclo([Bip(4'-COOH)][4Pal][Phe(4-COOH)]G[Pro(cis-4-F)][Trp(βS-Me,4-F)][Aib]EW[Aib][Cit]Q[Dab]G[dPro(4R-Bzl(4-F))]))	10.68
C[C@@H](c1c[nH]c2cccc(F)c12)[C@@H]1NC(=O)[C@@H]2C[C@H](F)CN2C(=O)CNC(=O)[C@H](Cc2ccc(C(=O)O)cc2)NC(=O)[C@H](CC23CC(C2)C3)NC(=O)[C@H](Cc2ccc([C@H]3CC[C@@H](C(=O)O)CC3)cc2)NC(=O)[C@H]2C[C@@H](Cc3ccc(F)cc3)CN2C(=O)CNC(=O)[C@H](CCN)NC(=O)[C@H](CCC(N)=O)NC(=O)[C@H](CO)NC(=O)C(C)(C)NC(=O)[C@H](Cc2c[nH]c3ccccc23)NC(=O)[C@H](CCC(=O)O)NC(=O)[C@](C)(CO)NC1=O [Example 107] (cyclo([Phe(4-(cis-4-COOH-cHex))][Ala(1-bicyclo(1.1.1)pentyl)][Phe(4-COOH)]G[Pro(cis-4-F)][Trp(βS-Me,4-F)][αMeS]EW[Aib]SQ[Dab]G[dPro(4R-Bzl(4-F))]))	10.20
CC(=O)NCCOc1ccc(C[C@@H]2NC(=O)[C@H]3C[C@@H](Cc4ccncc4)CN3C(=O)CNC(=O)[C@H](CCN)NC(=O)[C@H](CCC(N)=O)NC(=O)[C@H](Cc3ncco3)NC(=O)C(C)(C)NC(=O)[C@H](Cc3c[nH]c4ccccc34)NC(=O)[C@H](CCC(=O)O)NC(=O)C(C)(C)NC(=O)[C@H]([C@@H](C)c3c[nH]c4cccc(F)c34)NC(=O)[C@@H]3C[C@H](F)CN3C(=O)CNC(=O)[C@H](Cc3ccc(C(=O)O)cc3)NC(=O)[C@H](Cc3ccncc3)NC2=O)cc1 [Example 316] (cyclo([AEF](Ac)[4Pal][Phe(4-COOH)]G[Pro(cis-4-F)][Trp(βS-Me,4-F)][Aib]EW[Aib][X38]Q[Dab]G[dPro(4R-(4-pyridylmethyl))]))	10.70
CC(=O)NCCOc1ccc(C[C@@H]2NC(=O)[C@H]3C[C@@H](Cc4ccc(F)cc4)CN3C(=O)CNC(=O)[C@H](CCN)NC(=O)[C@H](CCC(N)=O)NC(=O)[C@H](Cc3cncnc3)NC(=O)C(C)(C)NC(=O)[C@H](Cc3c[nH]c4ccccc34)NC(=O)[C@H](CCC(=O)O)NC(=O)C(C)(C)NC(=O)[C@H]([C@@H](C)c3c[nH]c4cccc(F)c34)NC(=O)[C@@H]3C[C@H](F)CN3C(=O)CNC(=O)[C@H](Cc3ccc(C(=O)O)cc3)NC(=O)[C@H](Cc3ccncc3)NC2=O)cn1 [Example 12] (cyclo([X3][4Pal][Phe(4-COOH)]G[Pro(cis-4-F)][Trp(βS-Me,4-F)][Aib]EW[Aib][Ala(pyrimidin-5-yl)]Q[Dab]G[dPro(4R-Bzl(4-F))]))	10.14

Other lines, results leading:

pIC50	SMILES
10.82	C[C@@H](c1c[nH]c2cccc(F)c12)[C@@H]1NC(=O)[C@@H]2C[C@H](F)CN2C(=O)CNC(=O)[C@H](Cc2ccc(C(=O)O)cc2)NC(=O)[C@H](Cc2ccncc2)NC(=O)[C@H](Cc2ccc(-c3ccc(C(=O)O)cc3)cc2)NC(=O)[C@H]2C[C@@H](Cc3ccc(F)cc3)CN2C(=O)CNC(=O)[C@H](CCN)NC(=O)[C@H](CCC(N)=O)NC(=O)[C@H](CC2CCOCC2)NC(=O)[C@@](C)(CC(=O)O)NC(=O)[C@H](Cc2c[nH]c3ccccc23)NC(=O)[C@H](CO)NC(=O)C(C)(C)NC1=O [Example 313] (cyclo([Bip(4'-COOH)][4Pal][Phe(4-COOH)]G[Pro(cis-4-F)][Trp(βS-Me,4-F)][Aib]SW[d(αMeD)][Ala(4-THP)]Q[Dab]G[dPro(4R-Bzl(4-F))]))
10.31	C[C@@H](c1c[nH]c2cccc(F)c12)[C@@H]1NC(=O)[C@@H]2C[C@H](F)CN2C(=O)CNC(=O)[C@H](Cc2ccc(C(=O)O)cc2)NC(=O)[C@H](Cc2ccncc2)NC(=O)[C@H](Cc2ccc(-c3ccc(C(=O)O)cc3)cc2)NC(=O)[C@H]2C[C@@H](Cc3ccc(F)cc3)CN2C(=O)CNC(=O)[C@H](CO)NC(=O)[C@H](CCC(N)=O)NC(=O)[C@H](CCCNC(=N)N)NC(=O)C(C)(C)NC(=O)[C@H](Cc2c[nH]c3ccccc23)NC(=O)[C@H](CCC(=O)O)NC(=O)C(C)(C)NC1=O [Example 32] (cyclo([Bip(4'-COOH)][4Pal][Phe(4-COOH)]G[Pro(cis-4-F)][Trp(βS-Me,4-F)][Aib]EW[Aib]RQSG[dPro(4R-Bzl(4-F))]))
11.00	C[C@@H](c1c[nH]c2cccc(F)c12)[C@@H]1NC(=O)[C@@H]2C[C@H](F)CN2C(=O)CNC(=O)[C@H](Cc2ccc(C(=O)O)cc2)NC(=O)[C@H](Cc2ccncc2)NC(=O)[C@H](Cc2ccc(-c3ccc(C(N)=O)cc3)cc2)NC(=O)[C@H]2C[C@@H](Cc3ccncc3)CN2C(=O)CNC(=O)[C@H](CCN)NC(=O)[C@H](CCC(N)=O)NC(=O)[C@H](CC2CCOCC2)NC(=O)[C@@](C)(CO)NC(=O)[C@H](Cc2c[nH]c3ccccc23)NC(=O)[C@H](CO)NC(=O)C(C)(C)NC1=O [Example 215] (cyclo([Bip(4'-CONH2)][4Pal][Phe(4-COOH)]G[Pro(cis-4-F)][Trp(βS-Me,4-F)][Aib]SW[d(αMeS)][Ala(4-THP)]Q[Dab]G[dPro(4R-(4-pyridylmethyl))]))
